The values below come from patent US9944589B2, “Cycloproplyamine derivatives useful as inhibitors of histone demethylases KDM1A” (Istituto Europeo de Oncologia S.r.L., priority 2012, dated 2018).

Values joined by “and” are separate entries in the source; they are usually repeats but may differ in a detail not shown here. Identical values can stand only once. Counter-ions that a name gives are not always drawn.

Test [1] relates to Acute promyelocytic leukemia NB4 cells. Briefly: Cell growth (CellTiter-Fluor cell viability assay). The class given is cell-based. Conditions: Homo sapiens, NB-4, 48 h; for IC50: range classes, read-out: IC50 [μM], cell growth inhibitory assay. An excerpt: CellTiter-Flor® (Promega) is as a nonlytic, single-reagent-addition fluorescence assay that measures the relative number of living cells in a culture population after experimental manipulation. The CellTiter-Fluor™ Cell Viability Assay measures the conserved and constitutive protease activity within live cells and therefore acts as a marker for cell viability.
Acute promyelocytic leukemia NB4 cells, (obtained from the Deutsche Sammlung von Mikroorganismen and Zellkulturen) in exponential growth, were incubated for 48 h with different concentrations of the inhibitors. After 48 h a volume of CellTiter-Fluor® Reagent equal to one fifth of volume of cell culture medium was added. The content was mixed and incubates for at least 90 min at 37° C. degree to obtain a stable signal. The fluorescence was recorded using an excitation wavelength of 360 nm and an emission at 535 nm. The IC50 was calculated using GraphPad Software.

The target in test [2] is T1, human recombinant KDM1A (LSD1)/CoRest (Homo sapiens, UniProt O60341).
T1 construct: made in house; host or cells: E. coli
The experiment in a line: Assay of enzyme inhibition of KDM1A (LSD1), Amplex UltraRed/peroxidase coupled. Type of test: biochemical. Conditions: 15 min preincubation, 4.5 μM mono-methylated H3-K4 peptide, range classes, read-out: IC50 [μM], KDM1A inhibition assay. The method, then:
The experiments were performed using a mono-methylated H3-K4 peptide containing 21 amino acids (custom synthesis done by Thermo Scientific) as substrate and in a 50 mM TRIS, pH 8, 0.05 mg/ml BSA buffer.
The demethylase activity was estimated under aerobic conditions and at RT by measuring the release of H2O2 produced during the catalytic process by the Amplex® UltraRed detection system coupled with peroxidase assay. Briefly, a fixed amount of KDM1A/CoRest complex was incubated at RT for 15 minutes in the absence and/or the presence of various concentrations of inhibitor (e.g. from 0 to 100 μM, depending on the inhibitor strength) and of Amplex® UltraRed detection system coupled with peroxidase assay. The inhibitors were tested twice in duplicates at each concentration. […] The conversion of the Amplex® Ultra Red reagent to resorufin was monitored in continuous by fluorescence (excitation at 540 nm, emission at 590 nm) using a microplate reader (Infinite 200, Tecan). Arbitrary units were used to measure the level of H2O2 produced in the absence and/or in the presence of inhibition. The maximum demethylase activity of KDM1A/CoRest was obtained in the absence of inhibitors and corrected for background fluorescence in the absence of KDM1A/CoRest. The IC50 was calculated using GraphPad Software.

Regarding `N[C@@H]1C[C@H]1c1ccccc1` (racemic) [tranylcypromine, reference compound], the inhibition (usually how much of the control response was suppressed) at 100 µM in test [1] (100 μM, read-out: inhibition at 100 μM, cell growth inhibitory assay) came out at 10%.

In the case of `N[C@]1(Cc2ccccc2)C[C@H]1c1ccccc1` (relative stereo) [Example A-8, trans-1-benzyl-2-phenyl-cyclopropanamine hydrochloride], the IC50 (as a rule, the point on the concentration scale where inhibition reaches its midpoint) in test [1] was 50 to 100 µM.

Regarding `N[C@]1(CCc2ccccc2)C[C@H]1c1ccccc1` (relative stereo) [Example A-11, trans-1-phenethyl-2-phenyl-cyclopropanamine hydrochloride], in test [1], the IC50 fell in the range of 10 to 50 µM.

Regarding `CC[C@@]1(N)C[C@H]1c1ccc(Br)cc1` (relative stereo) [Example A-12, trans-2-(4-bromophenyl)-1-ethyl-cyclopropanamine hydrochloride], the values for the IC50 in test [2] and in test [1] were 0.1 to 1 µM and 10 to 50 µM, respectively.

As for `N[C@]1(Cc2ccccc2)C[C@H]1c1ccc(Br)cc1` (relative stereo) [Example A-13, trans-1-benzyl-2-(4-bromophenyl)cyclopropanamine hydrochloride], the IC50 in test [2] lay within 0.1 to 1 µM; in test [1], 10 to 50 µM.

Consider `CC[C@@]1(N)C[C@H]1c1ccc2ncccc2c1` (relative stereo) [Example A-14, trans-1-ethyl-2-(6-quinolyl)cyclopropanamine dihydrochloride], for which, in test [1], the 50% inhibitory concentration (IC50) lay within 10 to 50 µM.

Consider `N[C@]1(Cc2ccc3ccccc3c2)C[C@H]1c1ccccc1` (relative stereo) [Example A-15, trans-1-(2-naphthylmethyl)-2-phenyl-cyclopropanamine hydrochloride], for which the half-inhibitory concentration (IC50) in test [1] was at most 10 µM.

Take `CC[C@@]1(N)C[C@H]1c1ccc(OC(F)(F)F)cc1` (relative stereo) [Example A-24, 1-ethyl-(trans)-2-[4-(trifluoromethoxy)phenyl] cyclopropanamine hydrochloride]: the IC50 in test [2] lay in the range of 1 to 5 µM; in test [1], 50 to 100 µM.

With `N[C@]1(Cc2ccc3ccccc3c2)C[C@H]1c1ccc(Br)cc1` (relative stereo) [Example A-29, trans-2-(4-bromophenyl)-1-(2-naphthylmethyl)cyclopropanamine hydrochloride], the IC50 in test [2] was in the range of 0.1 to 1 µM; in test [1], 10 to 50 µM.

As for `CC[C@@]1(N)C[C@H]1c1ccc(NC(=O)c2ccc3ccccc3c2)cc1` (relative stereo) [Example A-30, trans-N-[4-[2-amino-2-ethyl-cyclopropyl]phenyl]naphthalene-2-carboxamide hydrochloride], the IC50 in test [1] was in the range of 10 to 50 µM.

Take `CC[C@]1(N)C[C@@H]1c1ccccc1NC(=O)c1cccc(NC(=O)OCc2ccccc2)c1` (relative stereo) [Example A-32, benzyl N-[3-[[2-[(trans)-2-amino-2-ethyl-cyclopropyl]phenyl]carbamoyl]phenyl]carbamate hydrochloride]: the IC50 in test [1] lay within 10 to 50 µM.

For `CC[C@@]1(N)C[C@H]1c1cccc(NC(=O)c2cccc(NC(=O)OCc3ccccc3)c2)c1` (relative stereo) [Example A-33, benzyl N-[3-[[3-[(trans)-2-amino-2-ethyl-cyclopropyl]phenyl]carbamoyl]phenyl]carbamate hydrochloride], the 50% inhibitory concentration (IC50) in test [2] lay in the range of 0.1 to 1 µM; in test [1], 10 to 50 µM.

Turning to `CC[C@@]1(N)C[C@H]1c1ccc(NC(=O)c2cccc(Cl)c2)cc1` (relative stereo) [Example A-34, N-[4-[(trans-2-amino-2-ethyl-cyclopropyl]phenyl]-3-chloro-benzamide hydrochloride], the concentration for half-maximal inhibition (IC50) in test [2] is under 0.1 µM; in test [1] it was 10 to 50 µM.

On to `CC[C@@]1(N)C[C@H]1c1ccc(NC(=O)c2cccc(NC(=O)OCc3ccccc3)c2)cc1` (relative stereo) [Example A-37, benzyl N-[3-[[4-[(trans)-2-amino-2-ethyl-cyclopropyl]phenyl]carbamoyl]phenyl]carbamate hydrochloride], for which the concentration for half-maximal inhibition (IC50) in test [2] was under 0.1 µM; in test [1], 10 to 50 µM.

On to `CC[C@@]1(N)C[C@H]1c1ccc(NC(=O)c2ccc(NC(=O)OCc3ccccc3)cc2)cc1` (relative stereo) [Example A-38, benzyl N-[4-[[4-[(trans)-2-amino-2-ethyl-cyclopropyl]phenyl]carbamoyl]phenyl]carbamate hydrochloride], for which, in test [1], the IC50 was at most 10 µM.

On to `CC[C@@]1(N)C[C@H]1c1ccc(NC(=O)CCc2ccccc2)cc1` (relative stereo) [Example A-40, N-[4-[(trans)-2-amino-2-ethyl-cyclopropyl]phenyl]-3-phenyl-propanamide hydrochloride], for which the IC50 was under 0.1 µM in test [2] and at most 10 µM in test [1].

Consider `CC[C@@]1(N)C[C@H]1c1ccc(OCc2ccccc2)cc1` (relative stereo) [Example A-41, 2-(4-benzyloxyphenyl)- trans-1-ethyl-cyclopropanamine hydrochloride], for which the half-inhibitory concentration (IC50) was 0.1 to 1 µM in test [2] and 10 to 50 µM in test [1].

On to `N[C@]1(Cc2ccccc2)C[C@H]1c1ccc(OCc2ccccc2)cc1` (relative stereo) [Example A-43, trans-1-benzyl-2-(4-benzyloxyphenyl) cyclopropanamine hydrochloride], for which the IC50 in test [2] lay within 0.1 to 1 µM; in test [1], 10 to 50 µM.

Take `N[C@]1(Cc2ccc3ccccc3c2)C[C@H]1c1ccc(NC(=O)c2cccc(NC(=O)OCc3ccccc3)c2)cc1` (relative stereo) [Example A-45, benzyl N-[3-[[4-[(trans)-2-amino-2-(2-naphthylmethyl)cyclopropyl]phenyl]carbamoyl]phenyl] carbamate hydrochloride]: the half-inhibitory concentration (IC50) in test [1] was at most 10 µM.

Turning to `Nc1ccc([C@@H]2C[C@]2(N)Cc2ccc3ccccc3c2)cc1` (relative stereo) [Example A-119, 4-[trans-2-amino-2-(2-naphthylmethyl)cyclopropyl]aniline 2,2,2-trifluoroacetic acid], in test [1], the IC50 was at most 10 µM.

Take `N[C@@]1(CO)C[C@H]1c1ccccc1` (relative stereo) [Example B-2, [1-Amino-(cis)-2-phenyl-cyclopropyl]methanol]: the half-inhibitory concentration (IC50) in test [1] was in the range of 50 to 100 µM.

`C[C@@]1(NCc2nnc(N)o2)C[C@H]1c1ccccc1` (relative stereo) [Example C-32, 5-[[[trans-1-methyl-2-phenyl-cyclopropyl]amino]methyl]-1,3,4-oxadiazol-2-amine]: the concentration for half-maximal inhibition (IC50) in test [2] was in the range of 0.1 to 1 µM.

Take `CC(=O)Nc1ccc([C@@]2(N)C[C@H]2c2ccccc2)cc1` (relative stereo) [Example D-6, N-[4-[trans-1-amino-2-phenyl-cyclopropyl]phenyl]acetamide hydrochloride]: in test [2], the concentration for half-maximal inhibition (IC50) was in the range of 0.1 to 1 µM.

In the case of `N[C@]1(Cc2ccc3ccccc3c2)C[C@H]1c1ccc(-n2cc(-c3cccc(NC(=O)OCc4ccccc4)c3)nn2)cc1` [Example A-123, benzyl N-[3-[1-[4-[2-amino-2-(2-naphthylmethyl)cyclopropyl]phenyl]triazol-4-yl]phenyl] carbamate hydrochloride], the IC50 in test [2] was under 0.1 µM.

As for `CC[C@]1(N)C[C@@H]1c1ccc(NC(=O)c2ccc(-c3ccccc3)cc2)cc1` [Example A-128, N-[4-[(1R,2S)-2-amino-2-ethyl-cyclopropyl]phenyl]-4-phenyl-benzamide hydrochloride], in test [2], the half-maximal inhibitory concentration (IC50) is under 0.1 µM.

Regarding `CC[C@@]1(NCc2c(OC)ccc3ccccc23)C[C@H]1c1ccccc1` [Example C-2, (1R,2S)-1-ethyl-N-[(2-methoxy-1-naphthyl)methyl]-2-phenyl-cyclopropanamine], the IC50 in test [1] fell in the range of 50 to 100 µM.

Regarding `CN1CCN(C(=O)CN[C@@]2(C)C[C@@H]2c2ccccc2)CC1` [Example C-3, 2-[[(1S,2R)-1-methyl-2-phenyl-cyclopropyl]amino]-1-(4-methylpiperazin-1-yl)ethanone dihydrochloride], in test [2], the concentration for half-maximal inhibition (IC50) is < 0.1 µM and 1 to 5 µM.

In the case of `C[C@]1(NCC(=O)N2CC[C@H](N)C2)C[C@@H]1c1ccccc1` [Example C-5, 1-[(3S)-3-aminopyrrolidin-1-yl]-2-[[(1S,2R)-1-methyl-2-phenyl-cyclopropyl]amino] ethanone hydrochloride], the half-maximal inhibitory concentration (IC50) in test [2] was 0.1 to 1 µM.

Turning to `CN1CCN(C(=O)CN[C@]2(C)C[C@H]2c2ccccc2)CC1` [Example C-25, 2-[[(1R,2S)-1-methyl-2-phenyl-cyclopropyl]amino]-1-(4-methylpiperazin-1-yl)ethanone 2,2,2-trifluoroacetic acid], the 50% inhibitory concentration (IC50) in test [2] is under 0.1 µM.

In the case of `CN1CCN(C(=O)CN[C@]2(C)C[C@@H]2c2ccccc2)CC1` [Example C-26, 2-[[(1R,2R)-1-methyl-2-phenyl-cyclopropyl]amino]-1-(4-methylpiperazin-1-yl)ethanone 2,2,2-trifluoroacetic acid], the IC50 in test [2] fell in the range of 1 to 5 µM.
